Consider two compounds from US9440980B2, “Remedy for diabetes” (EA Pharma Co., Ltd., priority 2007, dated 2016).

One experiment deals with isolated adipocytes. The experiment in a line: Measurement of glucose uptake activity in isolated rat adipocytes (2-[14C]-deoxy-D-glucose). It is filed as cell-based. Particulars: Adipocyte, glucose uptake of insulin (100 nM) = 100%. The procedure: A male Wistar rat was decapitated and exsanguinated, and then a paratesticular adipose tissue was resected therefrom after laparotomy. The tissue was cut in a KRH (Krebs-Ringer HEPES: 130 mM NaCl, 4.7 mM KCl, 1.2 mM KH2PO4, 1.2 mM MgSO4, 1 mM CaCl2, 25 mM HEPES) containing a BSA (bovine serum albumin), a collagenase (type I) was added thereto, and the resultant was subjected to a digestive treatment for about 40 minutes to obtain isolated adipocytes. The buffer was replaced to remove the collagenase, and a 2% BSA/KRH solution was added thereto, whereby the adipocytes were floated again to obtain a adipocytes suspension.
The glucose uptake activity of a test substance compound was evaluated in accordance with Non-Patent Document 14: Simpson et al., Annual Review of Biochemistry, 55, 1059, (1986). Thus, 200 μl of the adipocytes suspension was dispensed into each polystyrene test tube, 100 μl of a solution containing the test substance compound was added thereto, and the test tube was shaken and incubated at 37° C. for 30 minutes. The glucose uptake activity was evaluated by measuring the amount of 2-[^14C(U)]-deoxy-D-glucose uptaken per unit time. Thus, the 2-[^14C(U)]-deoxy-D-glucose was added to the preincubated adipocytes suspension at the final concentration of 0.5 μCi/sample, and after 5 minutes, cytochalasin B was added thereto at the final concentration of 10 μM to stop the glucose uptake. Dinonyl phthalate was superposed over the solution, the resultant was centrifuged to separate the fat cells from the buffer, and the amount of the 2-[^14C(U)]-deoxy-D-glucose contained in the fat cell layer was measured by a liquid scintillation counter, whereby the uptaken glucose amount was determined. The glucose uptake of insulin (100 nM) was evaluated in the same manner and considered to be 100%, and thus the EC50 value of each compound was obtained.

Experiment [1] deals with PI3-kinase β (p110β/p85α). The experiment in a line: PI3-kinase subtype activity with or without Gβ1γ2-Myc (PIP3 production, 32P-ATP, TLC). It is filed as biochemical.
Description: The subtypes α (PI3 Kinase (p110α/p85α), active, Upstate, Product No. 14-602), β (PI3 Kinase (p110β/p85α), active, Upstate, Product No. 14-603), γ ((PI3KγHis-GST (Phosphoinositide 3-kinase p110γHis/p101GST) human, Recombinant, Sf9 insect cell, JENA Bioscience, Product No. PR-347S), and δ (PI3 Kinase (p110δ/p85α), active, Upstate, Product No. 14-604) were used as the PI3-kinase subtypes respectively. A PI3K buffer (40 mM HEPES-Na (pH 7.4), 120 mM NaCl, 1 mM EGTA, 1 mM dithiothreitol, 1 mM β glycerophosphoric acid, 10 mM MgCl2, 0.1% BSA) was used as a buffer in the following reactions.
To the lipid micelle solution (125 μl) was added the purified Gβ1γ2-Myc solution (250 μl, 10 μg/ml) obtained in (1), and the resultant solution was stirred and left in ice for 10 minutes. 30 μl of the lipid micelle solution containing the Gβγ2-Myc was dispensed into 1.5-ml microtubes, and to these were added 5 μl of a compound solution and 5 μl of each PI3-kinase subtype (α, β, and δ: 5 μg/ml, γ: 2.5 μg/ml) successively. The mixture was left at room temperature for 10 minutes, and a 40-μM ATP solution (10 μl) containing ^32P-γ-ATP was added thereto, to initiate a reaction. The amount of the ^32P-γ-ATP added was about 300 kBq per one reaction. The reaction was carried out at room temperature for 30 minutes, and stopped by adding 80 μl of 1N HCl at ice temperature. 300 μl of a chloroform:methanol (1:1) solution was added thereto, the mixture was stirred to extract the lipid, and the organic layer was washed with 80 μl of 1N HCl twice. The solvent was removed from the residual organic layer under reduced pressure, the residue was dissolved in 20 μl of a chloroform:methanol (4:1) solution, the entire solution was spotted on a TLC plate (Merck, Kieselgel 60), and a TLC was carried out for about 4 hours using a developer of acetic acid:water:1-propanol (4:31:65). The TLC plate was treated with oxalic acid beforehand such that the plate was sufficiently developed by a 40% methanol solution containing 1% of potassium oxalate, dried overnight, and activated at 110° C. for 30 minutes. After the developing, the TLC plate was sufficiently dried and exposed using an imaging plate, and data were obtained by BAS2000 (FUJIFILM Corporation). The data were analyzed by a software of BAS2000, the analysis region was controlled such that spots of phosphatidylinositol-[3,4,5]-trisphosphate (PIP3) in the TLC lanes have the same areas, and the energy (PSL) corresponding to each radioactivity was quantified in the region.
A lipid micelle solution was prepared in the same manner as (2). […] The reaction was carried out at room temperature for 15 minutes, the resultant was treated in the same manner as (2), and the amount of the produced PIP3 was measured.
Experiment [2] has as its target T1, binding between the Gβ and the p110β (PI3-kinase β) (Homo sapiens, UniProt P42338+P62873).
T1 construct: purchased Upstate 14-603
The experiment is described as follows: Binding of Gβ1γ2-Myc to PI3-kinase β (immunoprecipitation, Western blot). Particulars: Compound 1 (0.1 μM) and Compound 6 (1 mM) approximately the same effect; FIG. 15. The procedure:
300 μl of a PI3K buffer (40 mM HEPES-Na (pH 7.4), 120 mM NaCl, 1 mM EGTA, 1 mM dithiothreitol, 1 mM β glycerophosphoric acid, 10 mM MgCl2, 0.1% BSA) was added to a 1.5-ml microtube, and to this were added 200 ng of the Gβ1γ2-Myc obtained in Example 20 (1), 160 ng of PI3-kinase β (PI3 Kinase (p110β/p85α), active, Upstate, Product No. 14-603), and a test substance. The mixture was left at room temperature for 30 minutes, to this was added 10 μl of a solution of an anti-cMyc antibody (9E10, 200 μg/ml, SantaCruz, Product No. sc-40), and the resulting mixture was left at room temperature for 2 hours. To the solution was added 25 μl of anti-mouse IgG agarose beads (American Qualex, Product No. 61060) which were washed with the same buffer, stirred at room temperature for 1 hour and centrifuged (10000 rpm, 1 minute) to remove the supernatant. Furthermore, the beads were washed with 0.5 ml of the buffer 3 times, eluted in a boiling SDS-containing buffer, and subjected to an SDS polyacrylamide electrophoresis. Then, the amounts of the p110β and the Gβ adsorbed to the beads were measured by a Western blot method using an anti-p110β antibody (SantaCruz, Product No. sc-602) and an anti-Gβ antibody (SantaCruz, Product No. sc-261).

The target of experiment [3] is T2, PI3-kinase β in the presence of Gβ1γ2-His (Homo sapiens, UniProt P42338+P62873).
T2 construct: purchased Upstate 14-603
The experiment is described as follows: PI3-kinase β activation assay in the presence of Gβ1γ2-His (scintillation counting). It is filed as biochemical. Particulars: FIG. 17. As to the method:
A lipid micelle solution was prepared in accordance with a method described in Example 24 (2), to this was added the Gβ1γ2-His prepared in (1) at a concentration of 13.3 μg/ml, and the mixture was left on ice for 10 minutes. To 30 μl of the resultant solution were added 5 μl of a solution containing Compound 1 or 6 and 5 μl of a PI3-kinase β solution (5 μg/ml) successively. A 40 μM ATP solution (10 μl) containing ^32P-γ-ATP was added thereto, and a reaction was carried out at room temperature for 2 hours. The reaction was stopped by addition of 80 μl of 1N HCl, and the lipid was extracted with 300 μl of chloroform:methanol (1:1). The organic layer was washed with 80 μl of 1N HCl twice, 10 ml of a liquid scintillator (Hionic Fluor) was added thereto, and the […] was measured by a liquid scintillation counter.

T2 sequence (P42338 whole entry): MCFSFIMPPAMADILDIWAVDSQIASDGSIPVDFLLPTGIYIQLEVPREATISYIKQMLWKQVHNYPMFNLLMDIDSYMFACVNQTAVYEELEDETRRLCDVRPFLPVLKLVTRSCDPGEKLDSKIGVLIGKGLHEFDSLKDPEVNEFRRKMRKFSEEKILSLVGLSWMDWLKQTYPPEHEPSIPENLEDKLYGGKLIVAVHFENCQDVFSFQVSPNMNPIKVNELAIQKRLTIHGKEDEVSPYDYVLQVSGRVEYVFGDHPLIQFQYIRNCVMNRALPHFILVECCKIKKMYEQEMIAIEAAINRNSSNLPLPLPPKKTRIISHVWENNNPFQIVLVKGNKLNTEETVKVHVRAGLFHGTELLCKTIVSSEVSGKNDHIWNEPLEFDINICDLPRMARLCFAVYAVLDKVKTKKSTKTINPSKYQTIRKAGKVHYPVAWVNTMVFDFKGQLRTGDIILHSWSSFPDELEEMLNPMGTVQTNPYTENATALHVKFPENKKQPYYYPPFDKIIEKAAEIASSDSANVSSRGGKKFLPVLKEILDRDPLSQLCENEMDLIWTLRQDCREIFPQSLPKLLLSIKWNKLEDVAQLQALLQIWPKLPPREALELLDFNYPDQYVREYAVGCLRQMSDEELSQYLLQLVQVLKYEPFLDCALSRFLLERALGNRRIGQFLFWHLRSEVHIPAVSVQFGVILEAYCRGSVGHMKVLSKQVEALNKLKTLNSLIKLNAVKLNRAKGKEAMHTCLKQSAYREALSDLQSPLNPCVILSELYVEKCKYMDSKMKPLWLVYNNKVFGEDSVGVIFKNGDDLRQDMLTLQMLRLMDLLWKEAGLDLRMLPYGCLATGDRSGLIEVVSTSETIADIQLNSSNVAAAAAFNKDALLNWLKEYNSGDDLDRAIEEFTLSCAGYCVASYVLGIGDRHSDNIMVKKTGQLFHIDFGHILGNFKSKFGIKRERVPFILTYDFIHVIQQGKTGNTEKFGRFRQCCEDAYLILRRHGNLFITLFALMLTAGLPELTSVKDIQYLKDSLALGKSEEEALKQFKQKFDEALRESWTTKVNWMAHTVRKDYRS
T2 sequence (P27986 whole entry partner): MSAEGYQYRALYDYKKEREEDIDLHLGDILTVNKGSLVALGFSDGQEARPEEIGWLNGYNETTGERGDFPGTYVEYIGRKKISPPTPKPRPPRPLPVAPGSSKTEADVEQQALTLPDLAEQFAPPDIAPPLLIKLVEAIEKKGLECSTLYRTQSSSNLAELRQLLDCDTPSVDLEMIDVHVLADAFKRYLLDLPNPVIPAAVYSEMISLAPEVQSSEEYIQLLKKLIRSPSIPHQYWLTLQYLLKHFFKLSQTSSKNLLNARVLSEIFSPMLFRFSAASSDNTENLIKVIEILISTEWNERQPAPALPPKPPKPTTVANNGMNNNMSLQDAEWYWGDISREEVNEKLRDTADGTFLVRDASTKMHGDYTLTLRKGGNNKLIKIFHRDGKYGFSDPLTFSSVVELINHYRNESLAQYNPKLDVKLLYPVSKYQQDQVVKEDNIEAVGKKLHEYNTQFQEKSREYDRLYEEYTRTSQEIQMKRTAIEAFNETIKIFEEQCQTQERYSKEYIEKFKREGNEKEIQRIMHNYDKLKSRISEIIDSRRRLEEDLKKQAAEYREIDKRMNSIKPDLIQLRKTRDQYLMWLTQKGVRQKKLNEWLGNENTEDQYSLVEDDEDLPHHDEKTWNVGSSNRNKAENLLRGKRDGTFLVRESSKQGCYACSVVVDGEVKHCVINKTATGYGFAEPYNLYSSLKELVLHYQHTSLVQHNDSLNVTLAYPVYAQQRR
T2 sequence (P62873 whole entry): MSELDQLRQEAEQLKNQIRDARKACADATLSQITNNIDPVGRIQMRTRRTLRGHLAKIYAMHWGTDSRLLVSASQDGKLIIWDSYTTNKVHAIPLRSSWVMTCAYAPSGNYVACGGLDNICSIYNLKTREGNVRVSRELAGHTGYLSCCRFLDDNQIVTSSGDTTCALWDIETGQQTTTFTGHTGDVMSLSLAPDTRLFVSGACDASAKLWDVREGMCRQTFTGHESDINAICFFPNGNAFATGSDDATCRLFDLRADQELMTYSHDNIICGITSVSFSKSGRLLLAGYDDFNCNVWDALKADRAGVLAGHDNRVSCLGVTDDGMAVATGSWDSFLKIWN
T2 sequence (P59768 with tags, fused parts or gaps partner limits assumed): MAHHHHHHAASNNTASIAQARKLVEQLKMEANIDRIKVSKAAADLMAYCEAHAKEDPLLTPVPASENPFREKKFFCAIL
T1 sequence (P42338 whole entry): as the sequence (P42338 whole entry) above
T1 sequence (P27986 whole entry partner): as the sequence (P27986 whole entry partner) above
T1 sequence (P62873 whole entry): as the sequence (P62873 whole entry) above
T1 sequence (P59768 with tags, fused parts or gaps partner limits assumed): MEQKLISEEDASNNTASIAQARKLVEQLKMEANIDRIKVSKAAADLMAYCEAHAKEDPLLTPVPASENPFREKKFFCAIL

The compound `O=C1NCC2=C1[C@@H](c1ccccc1)N(C(=O)CO)[C@@H]1CCCC[C@H]1N2` [Compound 6] displayed an EC50 in the experiment on isolated adipocytes of 4000 nM. The “effect of enhancing the enzymatic activity of the PI3-kinase β” value in experiment [1] (presence of Gβ1γ2-Myc, concentration-dependent, 100 μM and 1 mM, FIG. 14) is listed as “significant effect of enhancing the enzymatic activity”. Also, the “effect on the binding between the Gβ and the p110β (PI3-kinase β)” value in experiment [2] is recorded as “enhanced”. Also, the “PI3-kinase activity compared with the case without compound” value in experiment [3] (100 μM) is listed as “clearly increased”.
With `O=C1NCC2=C1[C@@H](c1cccc3ccsc13)N(C(=O)CCc1ccccn1)[C@@H]1CCCC[C@H]1N2` [Compound 1], the EC50 in the experiment with isolated adipocytes was found to be 8 nM. The “effect on PI3-kinase β activity” value in experiment [1] (30 μM, presence of Gβ1γ2-Myc, FIG. 13) was “significant activating effect only on the PI3-kinase β”; in experiment [1] (absence of the Gβ (Gβ1γ2-Myc), FIG. 14), “no effects”. Moreover, the “effect of enhancing the enzymatic activity of the PI3-kinase β” value in experiment [1] (presence of Gβ1γ2-Myc, concentration-dependent, 0.1, 1, and 10 μM, FIG. 14) is given as “significant effect of enhancing the enzymatic activity”. The “effect on the binding between the Gβ and the p110β (PI3-kinase β)” value in experiment [2] was “enhanced”. Besides, the “PI3-kinase activity compared with the case without compound” value in experiment [3] (0.1 μM, 10 μM) is recorded as “clearly increased”.
